Like-named read-outs stand apart in the source and are kept apart here.
How the values were obtained:
[1] = system: MiaPaCa2 human pancreatic cancer cells; test: inhibition of proliferation, Alamar blue, 72 h; assay type: cell-based; settings: Homo sapiens, MIA PaCa-2
Procedure: The ability of selected compounds from the libraries 6, 15 and 19 to inhibit the growth of MiaPaCa2 human pancreatic cancer cells was investigated. Human pancreatic carcinoma (MiaPaCa2) cells were plated at a low confluency into 96-well tissue culture-treated plates. After allowing cells to attach and grow overnight at 37 degrees in a 5% CO2 incubator, growth medium was replaced with fresh medium (100 μl/well) containing compounds in a range from 0.1-100 μM. All treatments were made from 500× stock solutions in DMSO, and the control wells received an equivalent amount of DMSO in medium. After 72 hours of growth in the presence of the compounds, Alamar blue was added to the wells according to the manufacturer's instructions (Life Technologies, Grand Island, N.Y.) and cells were incubated in its presence for 2-3 hours. Fluorescence readings were performed using a Biotek Synergy II plate reader with […] wavelengths of 530/590 nm. […] Calculated IC50s are representative of at least three independent experiments.

[2] = system: MDAMB-231; test: anchorage-independent growth in agar; assay type: cell-based, human; settings: MDAMB-231, 2-4 weeks in agar
Procedure: (§1) FIG. 3. LPAAT-β inhibitors block anchorage-independent growth of cancer cell lines. Human pancreatic (MiaPaCa2 and Panc-1), ovarian (OVCAR-5) and breast cancer (MDAMB-231) cells were plated into 3% agar containing LPAAT-β inhibitors and allowed to grow for 2-4 weeks in the presence of the compounds. […] This effect of the small molecules is similar to the effect of knockdown with LPAAT-β siRNA (nt, non-targeting; LP-1, LPAAT-β).

[3] = system: MiaPaCa2; test: anchorage-independent growth in agar; assay type: cell-based, human; settings: MiaPaCa2, 2-4 weeks in agar
Procedure: as §1

[4] = system: OVCAR-5; test: anchorage-independent growth in agar; assay type: cell-based, human; settings: OVCAR-5, 2-4 weeks in agar
Procedure: as §1

[5] = system: Panc-1; test: anchorage-independent growth in agar; assay type: cell-based, human; settings: Panc-1, 2-4 weeks in agar
Procedure: as §1

[6] = system: mTOR effector protein phosphorylation in MiaPaCa2 cells; test: mTOR effector protein phosphorylation, Western blotting; assay type: cell-based; settings: Homo sapiens
Excerpt: FIG. 4. Inhibition of mTOR effector protein phosphorylation by LPAAT-β inhibitor.

[7] = system: Caspase 3 activity in IGROV-1 cells; test: induction of apoptosis, cleavage of fluorescent Caspase 3 substrate; assay type: cell-based, human; settings: IGROV-1, 48 hr
Procedure: FIGS. 5A-5B. Induction of apoptosis with 19s treatment in pancreatic and ovarian cancer cell lines. Human pancreatic (MiaPaCa2) and ovarian (IGROV-1) cells were treated for 48 hr with LPAAT-b inhibitors then harvested and the samples assayed for their ability to cleave a fluorescent Caspase 3 specific substrate, Av-DEVD-AMC (A) In addition, the samples were run on SDS-PAGE gels and Western blotted to assess the presence of the activated form of Caspase 3 (inset). MiaPaCa2 cells show 3.5-fold and IGROV-1 cells show 25-fold activation of Caspase 3 activity after treatment with 19s compared to a vehicle-treated control sample. (B) PARP cleavage in MiaPaCa2 cells treated for 72 hr with 10 μM 19s and 19p.

[8] = system: IGROV-1 ovarian cancer cells; test: combination with 5-FU, proliferation by Alamar blue, isobolograms; assay type: cell-based, human; settings: IGROV-1, 72 hr, simultaneous combination
Procedure: (§2) FIG. 6. Synergistic effect of YG9-095-3 with 5-FU in IGROV-1 ovarian cancer cells. Human ovarian and pancreatic carcinoma cell lines (IGROV-1 and OVCAR-5; Panc-1) were treated for 72 hr with 19s, 5-FU, and the two drugs in simultaneous combination. […] However, in OVCAR-5 cells, at low concentration there appears to be an additive effect of the two drugs on proliferation, but the effect becomes antagonistic at the higher concentrations of YG9-095-3.

[9] = system: OVCAR-5 cells; test: as above; assay type: cell-based, human; settings: OVCAR-5, 72 hr
Procedure: as §2

[10] = system: Panc-1; test: as above; assay type: cell-based, human; settings: Panc-1, 72 hr
Procedure: as §2

[11] = system: total cellular PA levels; test: total cellular PA levels measured by mass spectroscopy in intact cells; assay type: cell-based
Excerpt: Inhibition is by more than 50%. Inhibition is greater than that seen with a known DAGK inhibitor. DAGK is an enzyme that can also increase PA levels.

[12] = system: mTOR signaling; test: inhibition of mTOR signaling (FIG. 20); assay type: cell-based
Excerpt: P-p7056k and p-4EBP1 are decreased by treatment at 3 micromolar or higher.

[13] = system: RalA; test: RalA activation (FIG. 21); assay type: cell-based
Excerpt: Therefore this inhibitor can target the RalA effector arm as well as mTOR which few compounds can do.

[14] = system: pancreatic cancer cells; test: cell cycle progression (FIG. 22); assay type: cell-based
[15] = system: pancreatic cancer cells; test: combination treatment with regorafenib (FIG. 23); assay type: cell-based
Excerpt: This is important for the use of YG9-095-3 in combination with standard therapy for Kras mutant colon cancer.

[16] = body fat percentage measured by MRI in treated mice; assay type: in vivo; settings: after 20 days of treatment
Excerpt: YG9-095-3 can be a useful compound for the treatment of obesity as well as cancer.

[17] = target: T1, LPAAT-β (Homo sapiens, UniProt O15120); test: DTNB (Ellman's reagent) 96-well plate screening assay of LPAAT-β enzymatic activity; assay type: biochemical; set-up: The assay utilizes full-length, recombinant, baculovirus-produced LPAAT-β; made in house
T1 sequence (O15120 24-278): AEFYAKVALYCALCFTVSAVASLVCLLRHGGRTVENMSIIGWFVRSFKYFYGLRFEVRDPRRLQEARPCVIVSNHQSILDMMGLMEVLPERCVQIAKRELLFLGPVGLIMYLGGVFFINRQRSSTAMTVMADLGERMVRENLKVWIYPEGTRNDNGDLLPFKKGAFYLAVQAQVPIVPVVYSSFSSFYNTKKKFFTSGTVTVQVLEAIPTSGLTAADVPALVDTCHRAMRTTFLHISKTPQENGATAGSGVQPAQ
Procedure: Screening with a modified screening assay in 96-well plate format for LPAAT-β enzymatic activity was performed as reported by Aguado and Campbell (Aguado et al., Characterization of a human lysophosphatidic acid acyltransferase that is encoded by a gene located in the class III region of the human major histocompatibility complex. J. Biol. Chem. 1998, 273, 4096-105).
The assay utilizes full-length, recombinant, baculovirus-produced LPAAT-β, which catalyzes the production of dioleoyl-[…] from the enzymatic substrates oleoyl-lysophosphatidic acid (LPA) and oleoyl-coenzyme A (Scheme 2). The ability of the compound to inhibit the LPAAT-β activity was assayed by the colorimetric measurement of the reaction of the free thiol group of the released coenzyme A with Ellman's reagent [5,5′-dithiobis-(2-nitrobenzoic acid) or DTNB] (Riener et al., Quick measurement of protein sulfhydryls with Ellman's reagent and with 4,4′-dithiodipyridine. Anal. Bioanal. Chem. 2002, 373, 266-76). […] A hit identified from the Life Chemicals library 6a (IC50 100 nM) was selected for further investigation.

[18] = target: T1, LPAAT-β; test: secondary thin layer chromatography (TLC) assay measuring fluorescent PA; assay type: biochemical; set-up: The assay utilizes full-length, recombinant, baculovirus-produced LPAAT-β; made in house

SMILES: C=CCc1cc(-c2ccc(Cl)c(Cl)c2)cc(C(C)=NNC(N)=S)c1O [Compound 19s]
- IC50 [1]: 6.3 ± 2.9 µM
- inhibition of anchorage-independent growth [2]: potent inhibition
- inhibition of anchorage-independent growth [3]: potent inhibition
- inhibition of anchorage-independent growth [4]: potent inhibition
- inhibition of anchorage-independent growth [5]: potent inhibition
- inhibition at 10 µM ([6]; MIA PaCa-2, read-out: inhibition of P-4E-BP 1): 76%
- inhibition at 10 µM ([6]; MIA PaCa-2, read-out: inhibition of P-AKT): 88%
- inhibition at 10 µM ([6]; MIA PaCa-2, read-out: inhibition of P-p70): 43%
- activation of Caspase 3 activity compared to vehicle-treated control [7]: 25 fold
- combination effect with 5-FU on cellular proliferation [8]: moderately synergistic
- combination effect with 5-FU on cellular proliferation ([9]; at low concentration): additive
- combination effect with 5-FU on cellular proliferation ([9]; at the higher concentrations of YG9-095-3): antagonistic
- combination effect with 5-FU on cellular proliferation [10]: mildly additive to antagonistic
- cell membrane permeability ([11]; concluded from treatment of intact cells): cell membrane permeable
- inhibition (reduction) of total cellular PA levels ([11]; mass spectroscopy, intact cells): more than 50%
- concentration at which P-p70S6k and p-4EBP1 are decreased [12]: ≥ 3 µM
- inhibition of RalA activation [13]: 50%
- effect on cell cycle progression [14]: S-phase arrest and accumulation
- rescue of cells from the cell cycle effect by exogenous PA [14]: can be rescued
- combination effect with regorafenib [15]: additive to synergistic inhibition
- decrease in body fat percentage compared to vehicle treated controls [16]: 50%
- IC50 ([17]; Table 4, read-out: IC50 (μm) (DTNB assay) (converted)): 0.36 ± 0.1 µM
- IC50 ([17]; read-out: IC50 (μM) (DTNB assay) (converted)): 0.36 ± 0.1 µM
- IC50 [18]: 2.4 ± 0.7 µM
- IC50 ([18]; Table 4): 2.4 ± 0.7 µM
